Results from patent US10807986B2, “Fused pyrimidine compound or salt thereof” (TAIHO PHARMACEUTICAL CO., LTD., priority 2016, dated 2020).
Read-outs that look alike come from different tables or passages of the source.

Key:
[1] = mouse, microsomes, 0.5 h, 1 μM
Protocol: (§1) Solutions of the test compounds in DMSO/acetonitrile (the final concentration of each test compound was 1 μM, the final concentration of DMSO was 0.01%, and the final concentration of acetonitrile was 1%) were individually added to a liver microsome mixture solution (mouse liver microsome with a final concentration of 0.25 mg/mL, a potassium phosphate buffer with a final concentration of 100 mM, and magnesium chloride with a final concentration of 3 mM), and each mixture was pre-incubated at 37° C. for 5 minutes. […] After incubation at 37° C. for 30 minutes, a double amount of ethanol was added thereto to terminate the reaction, thereby obtaining post-reaction samples. A double amount of ethanol was added to each of the remaining mixture solutions, and a NADPH-generating system was further added thereto, thereby obtaining pre-reaction samples. The pre-reaction samples and post-reaction samples were centrifuged at 2000×g, and their supernatant was filtered through a glass filter. Each filtrate was then introduced into LC-MS/MS, and MS/MS peaks of the test compounds were detected. From the ratio of the post-reaction MS/MS peak to the pre-reaction MS/MS peak of the test compounds, the percentage of the remaining test compounds (remaining %) was calculated.

[2] = system: TT cells (human thyroid cancer cell line with RET activating mutation); assay: In vivo antitumor effect, mice subcutaneously implanted with TT cells; design: species or system BALB/cA Jcl-nu/nu male mice
Protocol: Human thyroid cancer cell lines (TT) were subcutaneously implanted into the right frank of 6- to 7-week-old BALB/cA Jcl-nu/nu male mice. After about 2 to 3 weeks from the cell implantation, the length (mm) and the width (mm) of tumors found in mouse bodies were measured. […] The day on which the mice were divided into groups was determined to be the “grouping day” (day 0 or 1).
A control group was administered a solvent (0.5% HPMC/0.1N HCl).
To determine the index of the antitumor effect, TV of each drug-administrated group was measured on day 15, and the tumor volume on day 15 relative to the tumor volume on the grouping day (day 0 or 1) (relative tumor volume: RTV) and T/C (%) were calculated from the following equations, and the antitumor effect was evaluated. […] TV (mm^3)=(length×width^2)/2 RTV=(TV on day 15)/(TV on day 0 or day 1) T/C(%)=(the mean RTV of a test compound treatment group)/(the mean RTV of the control group)×100

[3] = Evaluation of stability in liver microsome; conditions: mouse liver microsome 0.25 mg/mL, test compound 1 μM, 37° C., 30 minutes
Protocol: as §1

[4] = 100 mg/kg/day oral for 14 days, day 15, Table 54

Compound	Remaining (%) [3]	also measured
C/C=C/c1ccc(NC(=O)c2c(OCC)n(C3(C)CC3)c3ncnc(N)c23)cc1 [Example 117, (E)-4-amino-6-ethoxy-7-(1-methylcyclopropyl)-N-(4-(prop-1-en-1-yl)phenyl)-7H-pyrrolo[2,3-d]pyrimidine-5-carboxamide]	–	Remaining (%) [1]: 53%
COCc1ccc(NC(=O)c2c(C#CCN3CCOCC3)n(C3(C)CC3)c3ncnc(N)c23)cc1 [Example 85, 4-amino-N-[4-(methoxymethyl)phenyl]-7-(1-methylcyclopropyl)-6-(3-morpholinoprop-1-yn-1-yl)-7H-pyrrolo[2,3-d]pyrimidine-5-carboxamide]	–	T/C (%) [2, 4]: 23%; TV (mm^3) Day 15 Mean ± SE [2, 4]: 139.42 mm^3; RTV Day 15 Mean ± SE ([2]; 100 mg/kg/day oral for 14 days, day 15 relative to day 0, Table 54): 0.87; TV (mm^3) Day 0 Mean ± SE ([2]; 100 mg/kg/day oral, grouping day (day 0), Table 54): 169.45 mm^3
COCc1ccc(NC(=O)c2c(-c3ccc(CO)cc3)n(C3(C)CC3)c3ncnc(N)c23)cc1 [Example 145, 4-amino-6-(4-(hydroxymethyl)phenyl)-N-(4-(methoxymethyl)phenyl)-7-(1-methylcyclopropyl)-7H-pyrrolo[2,3-d]pyrimidine-5-carboxamide]	72%	–
COCc1ccc(NC(=O)c2c(C#Cc3cncs3)n(C3(C)CC3)c3ncnc(N)c23)cc1 [Example 193, 4-amino-N-[4-(methoxymethyl)phenyl]-7-(1-methylcyclopropyl)-6-(thiazol-5-ylethynyl)-7H-pyrrolo[2,3-d]pyrimidine-5-carboxamide]	51%	–
C=C(C)c1c(C(=O)Nc2ccc(COC)cc2)c2c(N)ncnc2n1C1(C)CC1 [Example 149, 4-amino-N-(4-(methoxymethyl)phenyl)-7-(1-methylcyclopropyl)-6-(prop-1-en-2-yl)-7H-pyrrolo[2,3-d]pyrimidine-5-carboxamide]	62%	–
COCc1ccc(NC(=O)c2c(C#Cc3cccc(NCc4ccncc4)c3)n(C3(C)CC3)c3ncnc(N)c23)cc1 [Example 122, 4-amino-N-(4-(methoxymethyl)phenyl)-7-(1-methylcyclopropyl)-6-((3-((pyridin-4-ylmethyl)amino)phenyl)ethynyl)-7H-pyrrolo[2,3-d]pyrimidine-5-carboxamide]	62%	–
COCc1ccc(NC(=O)c2c(C#CC3CCOCC3)n(C3(C)CC3)c3ncnc(N)c23)cc1F [Example 205, 4-amino-N-(3-fluoro-4-(methoxymethyl)phenyl)-7-(1-methylcyclopropyl)-6-((tetrahydro-2H-pyran-4-yl)ethynyl)-7H-pyrrolo[2,3-d]pyrimidine-5-carboxamide]	58%	–
COCc1ccc(NC(=O)c2c(-c3ccc(CO)nc3)n(C3(C)CC3)c3ncnc(N)c23)cc1 [Example 179, 4-amino-6-(6-(hydroxymethyl)pyridin-3-yl)-N-(4-(methoxymethyl)phenyl)-7-(1-methylcyclopropyl)-7H-pyrrolo[2,3-d]pyrimidine-5-carboxamide]	85%	–
COCc1ccc(NC(=O)c2c(C#CC(C)(C)O)n(C3(C)CC3)c3ncnc(N)c23)cc1 [Example 174, 4-amino-6-(3-hydroxy-3-methylbut-1-yn-1-yl)-N-(4-(methoxymethyl)phenyl)-7-(1-methylcyclopropyl)-7H-pyrrolo[2,3-d]pyrimidine-5-carboxamide]	72%	–
COCc1ccc(NC(=O)c2c(C#Cc3cn(C)nc3C)n(C3(C)CC3)c3ncnc(N)c23)cc1 [Example 181, 4-amino-6-((1,3-dimethyl-1H-pyrazol-4-yl)ethynyl)-N-(4-(methoxymethyl)phenyl)-7-(1-methylcyclopropyl)-7H-pyrrolo[2,3-d]pyrimidine-5-carboxamide]	62%	–
COCc1ccc(NC(=O)c2c(OCC3CCOCC3)n(C3(C)CC3)c3ncnc(N)c23)cc1 [Example 141, 4-amino-N-(4-(methoxymethyl)phenyl)-7-(1-methylcyclopropyl)-6-((tetrahydro-2H-pyran-4-yl)methoxy)-7H-pyrrolo[2,3-d]pyrimidine-5-carboxamide]	68%	–
COCc1ccc(NC(=O)c2c(-c3cnn(C)c3)n(C3(C)CC3)c3ncnc(N)c23)cc1 [Example 150, 4-amino-N-(4-(methoxymethyl)phenyl)-6-(1-methyl-1H-pyrazol-4-yl)-7-(1-methylcyclopropyl)-7H-pyrrolo[2,3-d]pyrimidine-5-carboxamide]	78%	–
